Experimental data reported in US20090253669A1, “Substituted Sulfonamide Compounds” (GRUENENTHAL GmbH, priority 2008, published 2009).

Legend:
[1] = molecular target: T1, B1R receptor of the rat (rB1R) (Rattus norvegicus, UniProt P97583); test: FLIPR Ca2+ assay on rB1R-transfected CHO K1 cells, antagonistic action; type: cell-based; conditions: CHO-K1, 10 μM test substance; agonist Des-Arg9-bradykinin 100 nM; % of maximum achievable inhibition; read-out: rB1R [10 μM] % inhibition
T1 construct: host or cells: CHO K1 cells
T1 sequence (P97583 1-337): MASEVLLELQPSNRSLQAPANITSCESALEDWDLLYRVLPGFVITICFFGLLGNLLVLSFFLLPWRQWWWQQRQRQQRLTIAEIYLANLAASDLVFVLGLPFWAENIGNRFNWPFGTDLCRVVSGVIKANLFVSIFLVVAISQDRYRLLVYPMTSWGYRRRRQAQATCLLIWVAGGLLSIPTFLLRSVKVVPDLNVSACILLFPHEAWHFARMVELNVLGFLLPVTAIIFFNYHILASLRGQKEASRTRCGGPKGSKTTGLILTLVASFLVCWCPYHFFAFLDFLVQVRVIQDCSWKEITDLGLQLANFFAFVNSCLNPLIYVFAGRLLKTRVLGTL

[2] = molecular target: T2, human B1R receptor (hB1R) (Homo sapiens, UniProt P46663); test: FLIPR Ca2+ assay on hB1R-transfected CHO K1 cells, antagonistic action; type: cell-based; conditions: CHO-K1, 10 μM test substance; agonist Lys-Des-Arg9-bradykinin 0.5 nM; % of maximum achievable inhibition; read-out: hB1R [10 μM] % inhibition
T2 construct: host or cells: CHO K1 cells
T2 sequence (P46663 1-353): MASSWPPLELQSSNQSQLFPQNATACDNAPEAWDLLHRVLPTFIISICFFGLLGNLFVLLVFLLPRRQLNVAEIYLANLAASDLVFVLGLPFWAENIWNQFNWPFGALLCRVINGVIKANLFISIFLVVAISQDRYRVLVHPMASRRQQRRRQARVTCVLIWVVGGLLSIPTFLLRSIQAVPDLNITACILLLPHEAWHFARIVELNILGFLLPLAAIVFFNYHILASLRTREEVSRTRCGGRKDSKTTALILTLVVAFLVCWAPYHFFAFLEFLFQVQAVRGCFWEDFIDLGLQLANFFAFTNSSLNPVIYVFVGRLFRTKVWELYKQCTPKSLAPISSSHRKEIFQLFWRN

CN1CCN(C2(c3ccccc3)CCN(C(=O)CC(NS(=O)(=O)c3ccc4ccccc4c3)c3ccccc3)CC2)CC1 (centres unmarked) [Compound 82, N-(3-(4-(4-methylpiperazin-1-yl)-4-phenylpiperidin-1-yl)-3-oxo-1-phenylpropyl)naphthalene-2-sulfonamide]
inhibition at 10 µM [1]: 99%
inhibition at 10 µM [2]: 99%

COc1cc(C)c(S(=O)(=O)N(C)CCOCC(=O)N(C)CCCC2CCC(c3ccccc3)(N3CCCC3)CC2)c(C)c1 (centres unmarked) [Compound 83, 2-(2-(4-methoxy-N,2,6-trimethylphenylsulfonamido)ethoxy)-N-methyl-N-(3-(4-phenyl-4-(pyrrolidin-1-yl)cyclohexyl)propyl)acetamide]
inhibition at 10 µM [1]: 99%
inhibition at 10 µM [2]: 103%

COc1cc(C)c(S(=O)(=O)N2CCCCC2COCC(=O)N(C)CCC2CCC(Cc3ccccc3)(N(C)C)CC2)c(C)c1 (centres unmarked) [Compound 84, N-(2-(4-benzyl-4-(dimethylamino)cyclohexyl)ethyl)-2-((1-(4-methoxy-2,6-dimethylphenylsulfonyl)piperidin-2-yl)methoxy)-N-methylacetamide]
inhibition at 10 µM [1]: 99%
inhibition at 10 µM [2]: 104%

COc1cc(C)c(S(=O)(=O)N(C)CCOCC(=O)N(C)CCCC2CCC(Cc3ccccc3)(N3CCCC3)CC2)c(C)c1 (centres unmarked) [Compound 85, N-(3-(4-benzyl-4-(pyrrolidin-1-yl)cyclohexyl)propyl)-2-(2-(4-methoxy-N,2,6-trimethylphenylsulfonamido)ethoxy)-N-methylacetamide]
inhibition at 10 µM [1]: 99%
inhibition at 10 µM [2]: 99%

CN(CCC1CCC(Cc2ccccc2)(N(C)C)CC1)C(=O)CC(NS(=O)(=O)c1ccc2ccccc2c1)c1ccccc1 (centres unmarked) [Compound 86, N-(2-(4-benzyl-4-(dimethylamino)cyclohexyl)ethyl)-N-methyl-3-(naphthalene-2-sulfonamido)-3-phenylpropanamide]
inhibition at 10 µM [1]: 99%
inhibition at 10 µM [2]: 101%

COc1cc(C)c(S(=O)(=O)N(C)CCOCC(=O)N2CCC(CCc3ccccc3)(N3CCN(C)CC3)CC2)c(C)c1 [Compound 87, 4-methoxy-N,2,6-trimethyl-N-(2-(2-(4-(4-methylpiperazin-1-yl)-4-phenethylpiperidin-1-yl)-2-oxoethoxy)ethyl)benzenesulfonamide]
inhibition at 10 µM [1]: 98%
inhibition at 10 µM [2]: 99%

COc1cc(C)c(S(=O)(=O)N2CCCCC2COCC(=O)N(C)CCCC2CCC(Cc3ccccc3)(N3CCCC3)CC2)c(C)c1 (centres unmarked) [Compound 88, N-(3-(4-benzyl-4-(pyrrolidin-1-yl)cyclohexyl)propyl)-2-((1-(4-methoxy-2,6-dimethylphenylsulfonyl)piperidin-2-yl)methoxy)-N-methylacetamide]
inhibition at 10 µM [1]: 98%
inhibition at 10 µM [2]: 101%

CN(CC1CCC(CCc2ccccc2)(N2CCCC2)CC1)C(=O)CC(NS(=O)(=O)c1ccc2ccccc2c1)c1ccccc1 (centres unmarked) [Compound 89, N-methyl-3-(naphthalene-2-sulfonamido)-N-((4-phenethyl-4-(pyrrolidin-1-yl)cyclohexyl)methyl)-3-phenylpropanamide]
inhibition at 10 µM [1]: 98%
inhibition at 10 µM [2]: 92%

CN(CCC1CCC(c2ccccc2)(N(C)C)CC1)C(=O)CC(NS(=O)(=O)c1ccc2ccccc2c1)c1ccccc1 (centres unmarked) [Compound 90, N-(2-(4-(dimethylamino)-4-phenylcyclohexyl)ethyl)-N-methyl-3-(naphthalene-2-sulfonamido)-3-phenylpropanamide]
inhibition at 10 µM [1]: 97%
inhibition at 10 µM [2]: 97%

COc1cc(C)c(S(=O)(=O)N(C)CCOCC(=O)N(C)CCCC2CCC(CCc3ccccc3)(N3CCCC3)CC2)c(C)c1 (centres unmarked) [Compound 91, 2-(2-(4-methoxy-N,2,6-trimethylphenylsulfonamido)ethoxy)-N-methyl-N-(3-(4-phenethyl-4-(pyrrolidin-1-yl)cyclohexyl)propyl)acetamide]
inhibition at 10 µM [1]: 97%
inhibition at 10 µM [2]: 98%

CN(CC1CCC(c2ccccc2)(N2CCCC2)CC1)C(=O)CC(NS(=O)(=O)c1ccc2ccccc2c1)c1ccccc1 (centres unmarked) [Compound 92, N-methyl-3-(naphthalene-2-sulfonamido)-3-phenyl-N-((4-phenyl-4-(pyrrolidin-1-yl)cyclohexyl)methyl)propanamide]
inhibition at 10 µM [1]: 95%
inhibition at 10 µM [2]: 101%

CN(CCCC1CCC(Cc2ccccc2)(N2CCCC2)CC1)C(=O)CC1CCCCN1S(=O)(=O)c1cccc(C(F)(F)F)c1 (centres unmarked) [Compound 93, N-(3-(4-benzyl-4-(pyrrolidin-1-yl)cyclohexyl)propyl)-N-methyl-2-(1-(3-(trifluoromethyl)phenylsulfonyl)piperidin-2-yl)acetamide]
inhibition at 10 µM [1]: 94%
inhibition at 10 µM [2]: 98%

CN(CC1CCC(Cc2ccccc2)(N2CCCC2)CC1)C(=O)CC1CCCCN1S(=O)(=O)c1cccc(C(F)(F)F)c1 (centres unmarked) [Compound 94, N-((4-benzyl-4-(pyrrolidin-1-yl)cyclohexyl)methyl)-N-methyl-2-(1-(3-(trifluoromethyl)phenylsulfonyl)piperidin-2-yl)acetamide]
inhibition at 10 µM [1]: 93%
inhibition at 10 µM [2]: 64%

CN(CCC1CCC(Cc2ccccc2)(N(C)C)CC1)C(=O)CC1CCCCN1S(=O)(=O)c1cccc(C(F)(F)F)c1 (centres unmarked) [Compound 95, N-(2-(4-benzyl-4-(dimethylamino)cyclohexyl)ethyl)-N-methyl-2-(1-(3-(trifluoromethyl)phenylsulfonyl)piperidin-2-yl)acetamide]
inhibition at 10 µM [1]: 93%
inhibition at 10 µM [2]: 99%

CN1CCN(C2(c3ccc(F)cc3)CCN(C(=O)CC(NS(=O)(=O)c3ccc4ccccc4c3)c3ccccc3)CC2)CC1 (centres unmarked) [Compound 96, N-(3-(4-(4-fluorophenyl)-4-(4-methylpiperazin-1-yl)piperidin-1-yl)-3-oxo-1-phenylpropyl)naphthalene-2-sulfonamide]
inhibition at 10 µM [1]: 91%
inhibition at 10 µM [2]: 100%

CN(C)C1(Cc2ccccc2)CCN(C(=O)CC2CCCCN2S(=O)(=O)c2cccc(C(F)(F)F)c2)CC1 (centres unmarked) [Compound 97, 1-(4-benzyl-4-(dimethylamino)piperidin-1-yl)-2-(1-(3-(trifluoromethyl)phenylsulfonyl)piperidin-2-yl)ethanone]
inhibition at 10 µM [1]: 91%
inhibition at 10 µM [2]: 102%

O=C(CC(NS(=O)(=O)c1ccc2ccccc2c1)c1ccccc1)N1CCC(c2ccccc2)(N2CCN(c3ccncc3)CC2)CC1 (centres unmarked) [Compound 98, N-(3-oxo-1-phenyl-3-(4-phenyl-4-(4-(pyridin-4-yl)piperazin-1-yl)piperidin-1-yl)propyl)naphthalene-2-sulfonamide]
inhibition at 10 µM [1]: 91%
inhibition at 10 µM [2]: 72%

Cc1cc(S(=O)(=O)N2CCCCC2CCC(=O)N2CCC(c3ccccc3)(N3CCN(c4ccncc4)CC3)CC2)c(C)cc1Cl (centres unmarked) [Compound 99, 3-(1-(4-chloro-2,5-dimethylphenylsulfonyl)piperidin-2-yl)-1-(4-phenyl-4-(4-(pyridin-4-yl)piperazin-1-yl)piperidin-1-yl)propan-1-one]
inhibition at 10 µM [1]: 90%
inhibition at 10 µM [2]: 100%

O=C(COCC1CCc2ccccc2N1S(=O)(=O)c1ccc(Cl)c(Cl)c1)N1CCC(c2ccccc2)(N2CCN(c3ccncc3)CC2)CC1 (centres unmarked) [Compound 100, 2-((1-(3,4-dichlorophenylsulfonyl)-1,2,3,4-tetrahydroquinolin-2-yl)methoxy)-1-(4-phenyl-4-(4-(pyridin-4-yl)piperazin-1-yl)piperidin-1-yl)ethanone]
inhibition at 10 µM [1]: 88%
inhibition at 10 µM [2]: 51%
